According to patent publication US7115759B2, “Conjugated linoleic acid compositions” (Natural ASA, priority 2002, dated 2006):

How the values were obtained:
[1] = Peroxide value (PV) by chlorimetric ferric thiocyanate method after storage; assay type: physicochemical; conditions: after storage in open glass; spectrophotometric ferric thiocyanate method; unit assumed
Excerpt: The present invention also contemplates stabilization of CLA containing compounds, including but not limited to, CLA, esters of CLA, and triglycerides of CLA by preventing oxidation of the compounds. The present invention is not limited to any one mechanism. Indeed, an understanding of the mechanism of the invention is not necessary to produce the composition or perform the methods of the present invention. […] After storage in open glass, the PV of CLA was 32; in comparison, the value for linoleic acid was 370.

[2] = system: rat mammary tumorigenesis; conditions: administration of CLA; Birt et al. 1992; cited from earlier work
[3] = diets containing 0.5 percent CLA; pigs, mice, humans; U.S. Pat. No. 5,554,646; cited from earlier work
[4] = system: human melanoma, colorectal and breast cancer cells; conditions: in vitro; cited from earlier work

peroxide value (PV) [1] | Molecule | rat mammary tumorigenesis [2] | fat content [3] | cytotoxicity [4]
370 meq/kg | CCCCC/C=C\C/C=C\CCCCCCCC(=O)O [linoleic acid] |  |  | 
32 meq/kg | conjugated linoleic acid [CLA] | inhibits rat mammary tumorigenesis | significant drop in fat content | strong cytotoxic agent
